Measurements as given in patent US8841269B2, “Polynucleotides for use in treating and diagnosing cancers” (Creighton University, priority 2010, dated 2014).
Entries after “also recorded” stand apart in the source; their conditions may differ.

What was measured:
Format in all cases: cell-based, human
[1] = test system: cyclin D1; assay: Immunoblot of cyclin D1 after transfection in MCF7; conditions: MCF7, mimics; for expression of cyclin D1 (protein): after 2 days; for protein expression of cyclin D1: after 6 days
Text: (§1) Immunoblot analysis. For Western blot in FFPE tissues, an established method was followed (Addis et al., 2009, Proteomics 9:3815-23). For MCF7 cell line, let-7 mimics and negative control miRNA (60 nmol/L), or let-7 inhibitors and anti-miR negative control (60 nmol/L) were transfected following the protocol of siPORT NeoFX Transfection Agent (Applied Biosystems), The Western blot procedure was described before (Zhang et al., 2010, J Proteome Res., 9(2):980-989). Antibody information is as follows: ER-α, RB-9016-P1, Thermoscientific; Cyclin D1, sc-8396, Santa Cruz; pS2, ab80782 was Abeam; β-Actin, sc-69879, Santa Cruz.

[2] = test system: pS2; assay: Immunoblot of pS2 after transfection in MCF7; conditions: MCF7, mimics; for expression of pS2 (protein): after 2 days; for protein expression of pS2: after 6 days
Text: as §1

[3] = test system: estrogen response element (ERE) construct; assay: ERE luciferase assay (2 ERE-tk-Luc), genomic estrogen pathway in MCF7; conditions: for ERE luciferase activity: MCF7, p2 ERE-tk-Luc, 10 nmol/L E2 12 hours, p<0.01; for luciferase activity of the ERE construct: MCF7 cell line
Description: For checking on the genomic estrogen pathway, 10^5 MCF7 cells were first seeded into each well on a 24-well plate and cultured in IMEM with 2.5% charcoal-stripped FBS for 2 days. Then the cells were transfected as described above except that the estrogen response element (ERE) construct (2 ERE-tk-Luc; obtained from Katarine Pettersson, Karolinska Institute, Stockholm) replaced the pMIR-REPORT plasmid for 1 day. After stimulation with 10 nmol/L E2 for 12 hours, luciferase activity was measured as described above.

[4] = test system: ER-α36 mRNA; assay: Real-time PCR of ER-α36 mRNA after transfection; conditions: for ER-α36 mRNA expression: MDA-MB-231, mimics, vs negative control miRNA; for ER-α36 mRNA level: MDA-MB-231, two days post transfection
Description: To assess the expression levels of ER-α66 and ER-α36 with real-time PCR, total RNA was extracted using Trizol reagent (Invitrogen, Carsbad, Calif.). One microgram RNA was used for cDNA synthesis with the SuperScript III first-strand synthesis system (Invitrogen, Carsbad, Calif.). After 10 dilution, 4 μL cDNA was used in 20 μL reaction volume, which includes 4 μL of 1.5 μmol/L primers, 2 μL of 2 μmol/L probes, and 10 μL TaqMan universal PCR master mix with ampErase UNG (Applied Biosystems). The reaction condition was the same as miRNA real-time PCR. β-Actin was the internal control (Applied Biosystems, Foster City, Calif.). The primers for ER-α66 are: 5′-GCGGCCACGGACCAT (forward) (SEQ ID NO:20); 5′-[…] (SEQ ID NO:21) (reverse); 5′-FAM-[…]-TAMRA-3′ (probe) (SEQ ID NO:22). The primers for ER-α36 are: 5′-[…] (forward) (SEQ ID NO:23); 5′-[…] (reverse) (SEQ ID NO:24); 5′-[…] TAMRA-3′ (probe) (SEQ ID NO:43).
(§2) Let-7 miRNA or negative control #1 miRNA of 60 nmol/L (Ambion, Austin, Tex.) was transfected into cells with the siPORT NeoFX reagent (Ambion, Austin, Tex.) following the manufacturer's protocol.

[5] = Real-time PCR of let-7 levels after mimic transfection (Example 2)
Description: To analyze mature let-7 miRNAs with real-time PCR, total RNA was isolated from the cell lines using mirVana miRNA isolation kit (Ambion Inc., Austin, Tex.) or from FFPE tissues using the miRNeasy FFPE Kit (Qiagen, Valencia, Calif.) following the manufacturer's instructions. We collected FFPE breast tissues from 13 benign, 16 ductal carcinomas in situ (DCIS), and 15 invasive ductal carcinomas (IDC), all of which were prepared as 50 μm thick sheets. The benign breast tissues were from surgical resections of abnormal breast lesions with non-neoplastic phenotypes such as calcification, fibrocystic changes or stromal fibrosis. cDNA was synthesized using 100 ng total RNA in a reaction volume of 15 μL and following the protocol of Taqman microRNA reverse transcription kit (Applied Biosystems, Foster City, Calif.). After 15 dilution, 9 μl, cDNA mixture was used for real-time PCR in 20 μL reaction volume, including 10 μL of TaqMan universal PCR master mix (no ampErase UNG) and 1 μL Taqman probe (Applied Biosystems, Foster City, Calif.). Real-time PCR was performed on 7900HT realtime PCR instrument (Applied Biosystems). PCR was initiated by two holds of 52° C. 2 min and 94° C. 10 min each, followed by 40 cycles of 15 s at 95° C. and 1 min at 60° C. The level of each miRNA was expressed following the 2^−ΔCt method using the small nuclear RNA RNU48 as the internal reference.
as §2

[6] = test system: MCF7-Tam cells; assay: MTT cell proliferation assay with tamoxifen in MCF7-Tam; conditions: 1 μmol/L tamoxifen
Description: MCF7-Tam cells were transfected with let-7 mimics or negative control in normal growth medium for 1 day, or in medium with 2.5% charcoal-stripped FBS for 2 days to exhaust endogenous estrogen. Ten thousand cells in the volume of 100 μL were seeded in a 96-well plate for 12 hours and assay lasted for another 4 days. For tamoxifen treatment, 1 μmol/L tamoxifen was added to each well of 96-well plate. Each treatment had 12 replicates on the plate. Medium volume was increased to 200 μL after the assay began. The cells were then incubated in 0.83 mg/mL 3-[4,5-dimethylthiazol-2-yl]-2,5-diphenyltetrazolium bromide (MTT) in growth medium at 37° C. for 4 hours and lysed in 100 μL of dimethyl sulfoxide at room temperature for 15 minutes. The absorbance in each well was measured at […] with an ELx800 Absorbance Microplate Reader (Biotek, Winooski, Vt.). Cell growth was expressed as a fraction of absorbance at day 0.

[7] = MCF7-Tam, 6 days after transfection, vs negative control
[8] = MCF7-Tam, two days after transfection
[9] = MDA-MB-231, after 2 days, vs negative control cells
[10] = E2 free medium (2.5% charcoal-stripped FBS)
[11] = complete (normal growth) medium with 10% FBS

Substance: let-7b: let-7b miRNA (mimic), 3′-UUGGUGUGUUGGAUGAUGGAGU-5′ (SEQ ID NO:8) (chemistry not given here; listed 3' to 5')
- expression of cyclin D1 (protein) [1]: significantly inhibited
- protein expression of cyclin D1 [1]: significantly decreased
- expression of pS2 (protein) [2]: significantly inhibited
- protein expression of pS2 [2]: significantly suppressed
- ERE luciferase activity [3]: about 40 % of negative control
- luciferase activity of the ERE construct [3]: inhibit the luciferase activity of the ERE construct
- ER-α36 mRNA expression [4]: 30 % of the controls
- ER-α36 mRNA level [4]: inhibited
- increase of let-7 level after mimic transfection [5, 7]: 100 fold
- increase of let-7 level after mimic transfection [5, 8]: ~600 fold
- increase of let-7 level after mimic transfection [5, 9]: ~400 fold
- tamoxifen sensitivity / cell growth (MTT) with tamoxifen [6, 10]: grew significantly slower; also recorded: significantly enhanced tamoxifen sensitivity
- tamoxifen sensitivity / cell growth (MTT) with tamoxifen [6, 11]: does not affect tamoxifen sensitivity

Substance: let-7i: let-7i miRNA (mimic), 3′-UUGUCGUGUUUGAUGAUGGAGU-5′ (SEQ ID NO:14) (chemistry not given here; listed 3' to 5')
- expression of cyclin D1 (protein) [1]: significantly inhibited
- protein expression of cyclin D1 [1]: modest effect
- expression of pS2 (protein) [2]: significantly inhibited
- protein expression of pS2 [2]: significantly suppressed
- ERE luciferase activity [3]: about 60 % of negative control
- luciferase activity of the ERE construct [3]: inhibit the luciferase activity of the ERE construct
- ER-α36 mRNA expression [4]: 30 % of the controls
- ER-α36 mRNA level [4]: inhibited
- increase of let-7 level after mimic transfection [5, 7]: 100 fold
- increase of let-7 level after mimic transfection [5, 8]: ~300 fold
- increase of let-7 level after mimic transfection [5, 9]: ~200 fold
- tamoxifen sensitivity / cell growth (MTT) with tamoxifen [6, 10]: grew significantly slower; also recorded: significantly enhanced tamoxifen sensitivity
- tamoxifen sensitivity / cell growth (MTT) with tamoxifen [6, 11]: does not affect tamoxifen sensitivity
